The values that follow come from patent publication US20100152259A1 (Merck & Co Inc., priority 2006, published 2010).

The test has as its system rabbit aortic slices. Put plainly: vessel relaxation assay (tissue-based, rabbit aortic slices). The format is cell-based. Conditions: Oryctolagus cuniculus.

Take `CCCCc1nc(Cl)c(C(=O)OC(C)OC(=O)OCCCC[C@H](CO[N+](=O)[O-])O[N+](=O)[O-])n1Cc1ccc(-c2ccccc2-c2nn[nH]n2)cc1` (single isomer, unassigned) [Compound 2]: the EC50 (commonly the midpoint of the concentration-response curve) came out at 1000 nM.
For `CCCCc1nc(Cl)c(C(=O)OCCOCCO[N+](=O)[O-])n1Cc1ccc(-c2ccccc2-c2nn[nH]n2)cc1` [Compound 1, reference compound] the value was 6000 nM; for `CCCCc1nc(Cl)c(C(=O)OC(C)OC(=O)OCCOCC(CO[N+](=O)[O-])O[N+](=O)[O-])n1Cc1ccc(-c2ccccc2-c2nnn[nH]2)cc1` (stereo not drawn) [Compound 3], 5000 nM; for `CCCCc1nc(Cl)c(C(=O)OC(C)OC(=O)OCCC(C)(C)CC(CO[N+](=O)[O-])O[N+](=O)[O-])n1Cc1ccc(-c2ccccc2-c2nnn[nH]2)cc1` (stereo not drawn) [Example 4, 1-[({[3,3-dimethyl-5,6-bis(nitrooxy)hexyl]oxy}carbonyl)oxy]ethyl 2-butyl-4-chloro-1-{[2′-(1H-tetrazol-5-yl)biphenyl-4-yl]methyl}-1H-imidazole-5-carboxylate], 1100 nM.
`CCOc1nc2cccc(C(=O)OC(C)(C)OC(=O)OCCCCC(CO[N+](=O)[O-])O[N+](=O)[O-])c2n1Cc1ccc(-c2ccccc2-c2nnn[nH]2)cc1` (stereo not drawn) [Example 8, 1-[({[5,6-bis(nitrooxy)hexyl]oxy}carbonyl)oxy]-1-methylethyl 2-ethoxy-1-{[2′-(1H-tetrazol-5-yl)biphenyl-4-yl]methyl}-1H-benzimidazole-7-carboxylate]: the EC50 is 370 nM.
Molecule `CCOc1nc2cccc(C(=O)OC(C)(C)OC(=O)OCCCC[C@H](CO[N+](=O)[O-])O[N+](=O)[O-])c2n1Cc1ccc(-c2ccccc2-c2nnn[nH]2)cc1` [Example 9, 1-[({[(5R)-5,6-bis(nitrooxy)hexyl]oxy}carbonyl)oxy]-1-methylethyl 2-ethoxy-1-{[2′-(1H-tetrazol-5-yl)biphenyl-4-yl]methy}-1H-benzimidazole-7-carboxylate] gave an EC50 of 990 nM.
For the molecule `CCOc1nc2cccc(C(=O)OC(C)(C)OC(=O)OCCOCC(CO[N+](=O)[O-])O[N+](=O)[O-])c2n1Cc1ccc(-c2ccccc2-c2nnn[nH]2)cc1` (stereo not drawn) [Example 10], the EC50 was 2380 nM.
Turning to `CCOc1nc2cccc(C(=O)OC(C)(C)OC(=O)OCCOC[C@H](CO[N+](=O)[O-])O[N+](=O)[O-])c2n1Cc1ccc(-c2ccccc2-c2nnn[nH]2)cc1` [Example 11, 1-{[(2-{[(2R)-2,3-bis(nitrooxy)propyl]oxy}ethoxy)carbonyl]oxy}-1-methylethyl 2-ethoxy-1-{[2′-(1H-tetrazol-5-yl)biphenyl-4-yl]methyl}-1H-benzimidazole-7-carboxylate], the EC50 was found to be 2300 nM.
In turn, `CCOc1nc2cccc(C(=O)OC(C)(C)OC(=O)OCC[C@@H](CO[N+](=O)[O-])O[N+](=O)[O-])c2n1Cc1ccc(-c2ccccc2-c2nnn[nH]2)cc1` [Example 12, 1-[({[(3S)-3,4-bis(nitrooxy)butyl]oxy}carbonyl)oxy]-1-methylethyl 2-ethoxy-1-{[2′-(1H-tetrazol-5-yl)biphenyl-4-yl]methyl}-1H-benzimidazole-7-carboxylate] yielded an EC50 of 3730 nM.
